Laboratory results reported in patent US20120071496A1, “Aminopyrimidinamides As Pest Control Agents” (Bayer CropScience AG, priority 2009, published 2012).

Columns and labels:
[1] = tested on: Spodoptera litura third instar larvae; experiment: Test against tobacco cutworm (Spodoptera litura) larvae; format: in vivo; conditions: active compound concentration 100 ppm; immersed sweet potato leaves; after 7 days
Method: Unless not mentioned otherwise, the test solutions were prepared as follows:
Containing as solvent: Dimethylformamide, 3 parts by weight; and as emulsifier: Polyoxyethylene alkyl phenyl ether, 1 part by weight
Test Against Tobacco Cutworm (Spodoptera litura) Larvae
Leaves of sweet potato were immersed in the test solution at the appropriate concentration, and the leaves were dried in air. The leaves were then placed in a petri dish having a diameter of 9 cm, and ten Spodoptera litura at third instar larvae were released therein. The petri dishes were placed in a temperature-controlled chamber at 25° C. After 2 days and 4 days more sweet potato leaves were added. After 7 days, the number of dead larvae was counted to calculate the insecticidal activity. An insecticidal activity of 100% means that all larvae were killed, whereas an insecticidal activity of 0% means that no larva was killed.

[2] = logP (HCOOH); format: physicochemical

SMILES	insecticidal activity [1]	logP (HCOOH) ([2]; Table 2)	other results
CCc1ncccc1C(=O)Nc1c(NC2CC2)ncnc1-c1ccc(Cn2nc(C(F)(F)C(F)(F)F)cc2C(F)(F)C(F)(F)F)cc1 [1-269]	100%	–	–
CCc1ncccc1C(=O)Nc1c(NC2CC2)ncnc1-c1ccc(Oc2ncccc2C(F)(F)F)cc1 [1-311]	100%	–	–
CCc1ccccc1C(=O)Nc1c(NC2CC2)ncnc1-c1ccc(Cn2cnc(C(F)(F)F)n2)cc1 [1-286]	100%	–	–
CCc1ncccc1C(=O)Nc1c(NC2CC2)ncnc1-c1ccc(Cc2nc(C(F)(F)C(F)(F)C(F)(F)F)n(C)n2)cc1 [1-318]	100%	–	–
CCCc1ncccc1C(=O)Nc1c(NC2CC2)ncnc1-c1ccccc1 [1-237]	100%	–	–
O=C(Nc1c(NC2CC2)ncnc1-c1ccccc1)c1cccnc1C1CC1 [1-234]	100%	–	–
N#Cc1ccc(-c2ncnc(NC3CC3)c2NC(=O)c2cccnc2C2CC2)cc1 [1-242]	100%	–	–
CCc1ncccc1C(=O)Nc1c(NC2CC2)nc(C(F)(F)F)nc1-c1ccc(F)cc1F [1-314]	100%	–	–
CCc1ccccc1C(=O)Nc1c(NC2CC2)ncnc1-c1ccc(Cn2nc(C(F)(F)F)nc2C(F)(F)F)cc1 [1-265]	100%	–	–
O=C(Nc1c(NC2CC2)ncnc1-c1ccc(F)cc1)c1cccnc1C1CC1 [1-235]	100%	–	–
CCCc1ncccc1C(=O)Nc1c(NC2CC2)ncnc1-c1ccc(F)cc1F [1-245]	100%	–	–
O=C(Nc1c(NC2CC2)ncnc1-c1ccc(Cn2nc(C(F)(F)F)cc2C(F)(F)F)cc1)c1cccnc1C1CC1 [1-252]	100%	–	–
CCc1ncccc1C(=O)Nc1c(NC2CC2)nc(Cl)nc1-c1ccc(F)cc1 [1-326]	100%	–	–
CCc1ncccc1C(=O)Nc1c(NC2CC2)ncnc1-c1ccc(Cn2nc(C(F)(F)F)cc2C(F)(F)F)cc1 [1-268]	100%	–	–
CCc1ncccc1C(=O)Nc1c(NC2CC2)ncnc1-c1ccc(Oc2cccc(C(F)(F)F)n2)cc1 [1-312]	100%	–	–
CCc1ncccc1C(=O)Nc1c(NC2CC2)ncnc1-c1ccc(Cn2ccc(C(F)(F)C(F)(F)C(F)(F)F)n2)cc1 [1-267]	100%	–	–
CCc1ncccc1C(=O)Nc1c(NC2CC2)ncnc1-c1ccc(Cc2n[nH]c(C(F)(F)C(F)(F)C(F)(F)F)n2)cc1 [1-319]	100%	–	–
CCc1ccccc1C(=O)Nc1c(NC2CC2)ncnc1-c1ccc(OC(F)(F)F)cc1 [1-257]	100%	–	–
O=C(Nc1c(NC2CC2)nc(C(F)(F)F)nc1-c1ccc(F)cc1)c1cccnc1CC(F)(F)F [1-324]	100%	–	–
CCc1ncccc1C(=O)Nc1c(NC2CC2)ncnc1-c1ccc(Cn2ccc(C(F)(F)C(F)(F)F)n2)cc1 [1-266]	100%	–	–
CCCc1ncccc1C(=O)Nc1c(NC2CC2)ncnc1-c1ccc(Cl)cc1 [1-239]	100%	–	–
CCc1ncccc1C(=O)Nc1c(NC2CC2)ncnc1-c1ccc(C(F)(C(F)(F)F)C(F)(F)F)cc1 [1-232]	100%	–	–
CCCc1ncccc1C(=O)Nc1c(NC2CC2)ncnc1-c1ccc(F)cc1 [1-238]	100%	–	–
CCc1ncccc1C(=O)Nc1c(NC2CC2)nc(C(F)(F)F)nc1-c1ccc(F)cc1 [1-313]	100%	–	–
Cc1ncccc1C(=O)Nc1c(NC2CC2)ncnc1-c1ccc(SC(F)(F)F)cc1 [1-116]	–	1.81	–
O=C(Nc1c(NC2CC2)ncnc1-c1ccc(Cl)cc1)c1c(F)cccc1Cl [1-263]	–	2.20	–

SMILES	insecticidal activity [1]	logP (HCOOH) ([2]; Table 2)	other results
CCc1ncccc1C(=O)Nc1c(NC2CC2)ncnc1-c1ccccc1C [1-182]	–	0.94	–
CCc1ncccc1C(=O)Nc1c(CC)ncnc1NC1CC1 [3-8]	–	–	logP (HCOOH) ([2]; Table 4): 1.74
CCc1ncccc1C(=O)Nc1c(NC(C)(C)C)ncnc1-c1ccc(OC(F)(F)F)cc1 [1-138]	–	2.32	–
CCc1ncccc1C(=O)Nc1c(NC2CC2)ncnc1-c1ccc(Cl)cc1Cl [1-126, N-[4-Cyclopropylamino-6-(2,4-dichlorophenyl)pyrimidin-5-yl]-2-ethylnicotinamide]	–	–	chromatographic logP ([2]; HCOOH (formic acid), Table 2): 1.6
O=C(Nc1c(NC2CC2)ncnc1-c1ccc(C(F)(F)F)cc1)c1cccnc1Cl [1-82]	–	1.94	–
CC(C)Oc1ncccc1C(=O)Nc1c(NC2CC2)ncnc1-c1ccc(C#N)cc1 [1-164]	–	2.27	–
CCc1ncccc1C(=O)Nc1c(NC(C)(C)C)ncnc1-c1ccc(C(F)(F)F)cc1 [1-137]	–	2.34	–
CCc1ncccc1C(=O)Nc1c(NC2CC2)nc(C)nc1-c1ccc(F)cc1F [1-278]	–	1	–
Cc1ccccc1C(=O)Nc1c(NC2CC2)ncnc1-c1ccc(OC(F)(F)F)cc1 [1-72]	–	2.35	–
CCc1ncccc1C(=O)Nc1c(NC(C)C2CC2)ncnc1-c1ccccc1 (stereo not shown) [1-152]	–	1.32	–
CCc1nccc(Cl)c1C(=O)Nc1c(NC2CC2)ncnc1-c1ccc(F)cc1 [1-315]	–	2.18	–
O=C(Nc1c(NC2CC2)ncnc1-c1ccc(C(F)(F)F)cc1)c1cccnc1C(F)(F)F [1-84]	–	2.19	–
O=C(Nc1c(NC2CC2)ncnc1-c1ccc(F)cc1)c1ccnn1-c1ccc(F)cc1 [9-1]	–	–	IogP (HCOOH) ([2]; table after Table 9): 1.70
O=C(Nc1c(NC(C2CC2)C2CC2)ncnc1-c1ccc(OC(F)(F)F)cc1)c1cccnc1Cl [1-111]	–	2.65	–
CCc1ncccc1C(=O)Nc1c(NC(C)C2CC2)ncnc1-c1ccc(Cl)cc1 (stereo not shown) [1-144]	–	1.62	–
CCc1ncccc1C(=O)Nc1c(NC(C)C2CC2)ncnc1-c1ccc(OC(F)(F)F)cc1 (stereo not shown) [1-146]	–	2.18	–
N#Cc1ccc(-c2ncnc(NC3CC3)c2NC(=O)c2cccnc2OCC(F)(F)F)cc1 [1-168]	–	2.11	–
CCOc1ncccc1C(=O)Nc1c(NC2CC2)ncnc1-c1ccc(F)cc1 [1-159]	–	1.84	–
O=C(Nc1c(NC2CC2)ncnc1-c1ccc(C(F)(F)F)cc1)c1ccccc1Cl [1-80]	–	2.33	–
CCc1ncccc1C(=O)Nc1c(NC(C)C2(Cl)CC2)ncnc1-c1ccc(Cl)cc1 (stereo not shown) [1-149]	–	2.26	–
CCc1ncccc1C(=O)Nc1c(NC2CC2)ncnc1-c1ccc(COc2ccc(C(F)(F)F)cn2)cc1 [1-309]	–	1.77	–
COc1ncccc1C(=O)Nc1c(NC2CC2)ncnc1-c1ccc(Cl)cc1 [1-154]	–	1.83	–
Cc1ncccc1C(=O)Nc1c(NC2CC2)ncnc1-c1ccc(F)cc1 [1-1]	–	0.71	–
COc1ncccc1C(=O)Nc1c(NC2CC2)ncnc1-c1ccc(C#N)cc1 [1-156]	–	1.59	–
CC(C)Oc1ncccc1C(=O)Nc1c(NC2CC2)ncnc1-c1ccc(F)cc1 [1-163]	–	2.19	–
CCc1ncccc1C(=O)Nc1c(NC(C)(C)C)ncnc1-c1ccc(Cl)cc1Cl [1-142]	–	1.89	–
